Measurements taken from patent publication US7732485B2, “Treatment of cancer” (The University of Manchester, priority 2003, dated 2010).

Key:
L1210 cell line = experiment: Growth inhibition assay (modified MTT); assay type: cell-based, murine; settings: five-day MTT
Method: (§1) The sensitivities of the cell lines to cisplatinum, carboplatinum, and compounds A-F were determined using a growth inhibition assay which was a modified version of the MTT method (modified version of MTT method described in Appendix B).
(§2) The following is a brief description of the eleven different cell lines used in the growth inhibition assay: • The A2780 cell line (1 in FIGS. 1-9) is a human ovarian cell line which is sensitive to cisplatinum and carboplatinum. […] The cor123/cpr (7) cell line is a modified version of the cor123 cell line which has been modified to be resistant to cisplatinum and carboplatinum. • The ccu24 (8) cell line is an epithelial ovarian cancer cell line, developed at the Christie Hospital from a tumour biopsy, and the ccu24/cpr (9) cell line is a modified version of this cell line which is cisplatinum and carboplatinum resistant. • L1210 (10) is a murine leukemia cell line and L1210/M1140 (11) is its platinum drug resistant subline.
(§3) The cell toxicity studies were performed using a modification of the method MTT.^7 The principle of the assay is to assess the growth inhibitory effect of a drug at various doses over a five-day time course. This assay was performed in 96-well microtitre plates. Cells were seeded at densities of 400-1,000 cells per well, depending on the doubling time of the cell line. All cell dilutions were performed in growth medium containing 10% FCS (foetal calf serum).
(§4) Compounds under investigation were dissolved in DMSO (dimethylsulphoxide). Serial dilutions of compound were made into the cell suspension, ensuring that the proportion of DMSO remained below 0.5%. 200 μl of cells and drug mix was added to the 96-well plates in triplicate. The plates were incubated for five days at 5% CO2 and 37° C. After this time, the plates were removed from the incubator and 50 μl of a 3 mg/ml solution of MTT [3-(4,5-dimethyl-thiazol-2-yl)-2,5-diphenyl tetrazolium bromide] was added to each well and incubated in the same conditions for another 3 hours. The medium from each well was aspirated and the formazan crystals were solubilised in 200 μl of DMSO. The plates were read using a Multiskan platereader at 540 nm and 690 nm. Growth inhibition curves were constructed using mean and standard deviation of the triplicate absorbance values and from these curves the IC50 values were calculated.

L1210/M1140 cell line = experiment: Growth inhibition assay (modified MTT); assay type: cell-based, murine; settings: five-day MTT
Method: as §1, §2, §3, §4

L1210 = experiment: Comet assay, DNA crosslinking; assay type: cell-based, murine; settings: ratio >1 = more cross-linking in parental than in platinum-resistant line
Method: (§5) Preliminary studies have been carried out to investigate the mechanism underlying this increased sensitivity. These studies were carried out using the Comet assay (described in Appendix C), which measures damage to DNA. The results are shown in FIGS. 1 (cisplatinum), 2 (carboplatinum), 3 to 8 (compounds A-F) and 9 (phenylgoldtriphenylphospine, PAuP).
(§6) Table 3 illustrates the results of the following calculation using the DNA cross-linking results obtained in the Comet assays:
(§7) DNA damage was measured by the single cell gel electrophoresis (SCGE) assay or “Comet assay”, originally developed by Ostling and Johnson^8. This is a method for determining the extent of DNA damage and repair capacity within individual cells.^9-11 It has previously been shown that this technique can be used to investigate the mechanism of action of different DNA damaging agents.^12
(§8) Cells were trypsinised, suspended in 0.5 ml of ice cold fresh medium and transferred into plastic 24-well dishes prior to embedding in agarose. For the cross-linking studies treated and control samples were chilled on ice (to prevent any repair of DNA damage) and irradiated to a dose of 20 Gy in a Caesium-137 source (0.4 Gy/min). Control, (unirradiated, non-drug treated cells) were maintained on ice in the same manner as treated samples.
(§9) Glass microscope slides, frosted at one end, were pre-coated with 1% normal agarose in distilled water. These slides were allowed to air dry overnight prior to use. A 1% low melting point agarose (LMP) mixture in PBS was melted and held at 45° C. 1 ml of LMP was then added to 0.5 ml of cell suspension on ice and the resultant mixture was pipetted onto a pre-coated glass microscope slide and allowed to set for 1-2 minutes before being transferred to an ice tray. The slides were immersed in ice cold lysis solution (100 mM EDTA, 10 mM Tris-HCl, 1% Triton ×100, 1% DMSO, 2.5M NaCl) for 1 hr, and washed three times by immersion in fresh double distilled water for 15 minutes.
(§10) Slides were then placed onto a flat bed electrophoresis tank and covered (5-6 mm) with alkali unwinding solution (50 mM NaOH, 1 mM EDTA buffered to pH 12.5) and left under subdued lighting for 45 minutes to allow the DNA to unwind before being subjected to electrophoresis at 0.6V/cm for 25 minutes. Each slide was rinsed with 2×1 ml of 0.4M Tris-HCl, pH 8.0 and allowed to dry in air. The dried slides were then rehydrated for 20 minutes with double distilled water, 2×1 ml of propidium iodide solution (2.5 μg/ml) was added and staining was allowed to proceed for 15 minutes. Slides were then immersed in 1 litre of double distilled water for 1 hour to reduce excess background staining. The slides were cover slipped and then examined at 250× magnification under an epifluorescent microscope (Zeiss-Jenamed) using green light from a 50 watt mercury source with a 580 nm reflector and a 590 nm barrier filter set. Images were captured using an attached Sony HAD-1 interline CCD camera and Komet software analysis package (Kinetic Imaging). Twenty-five images from each of two duplicate slides were captured and analysed and the individual “comet moments” as defined by Olive et al^13, were calculated. The total fluorescence of the image represents the amount of DNA present and the length of the image, measured in pixels, represents the length of migration of the DNA. The head and tail areas of the image were identified and the intensity of each was determined. The tail moment is calculated by multiplying the fraction of DNA present in the tail by half the length of the tail.

A2780-S cell line = experiment: Growth inhibition assay (modified MTT); assay type: cell-based, human; settings: five-day MTT
Method: as §1, §2, §3, §4

mcp8 cell line = experiment: Growth inhibition assay (modified MTT); assay type: cell-based, human; settings: five-day MTT
Method: as §1, §2, §3, §4

A2780carb cell line = experiment: Growth inhibition assay (modified MTT); assay type: cell-based, human; settings: A2780carb, five-day MTT
Method: as §1, §2, §3, §4

cor123 cell line = experiment: Growth inhibition assay (modified MTT); assay type: cell-based, human; settings: five-day MTT
Method: as §1, §2, §3, §4

cor123/cpr cell line = experiment: Growth inhibition assay (modified MTT); assay type: cell-based, human; settings: five-day MTT
Method: as §1, §2, §3, §4

mcp1 cell line = experiment: Growth inhibition assay (modified MTT); assay type: cell-based, human; settings: five-day MTT
Method: as §1, §2, §3, §4

A2780cis cell line = experiment: Growth inhibition assay (modified MTT); assay type: cell-based, human; settings: A2780cis, five-day MTT
Method: as §1, §2, §3, §4

ccu24 cell line = experiment: Growth inhibition assay (modified MTT); assay type: cell-based, human; settings: five-day MTT
Method: as §1, §2, §3, §4

ccu24/cpr cell line = experiment: Growth inhibition assay (modified MTT); assay type: cell-based, human; settings: five-day MTT
Method: as §1, §2, §3, §4

ccu24 = experiment: Comet assay, DNA crosslinking; assay type: cell-based, human; settings: ratio >1 = more cross-linking in parental than in platinum-resistant line
Method: as §5, §6, §7, §8, §9, §10

A2780/mcp8 = experiment: Comet assay, DNA crosslinking; assay type: cell-based, human; settings: ratio >1 = more cross-linking in parental than in platinum-resistant line
Method: as §5, §6, §7, §8, §9, §10

A2780cis = experiment: Comet assay, DNA crosslinking; assay type: cell-based, human; settings: ratio >1 = more cross-linking in parental than in platinum-resistant line
Method: as §5, §6, §7, §8, §9, §10

cor123 = experiment: Comet assay, DNA crosslinking; assay type: cell-based, human; settings: ratio >1 = more cross-linking in parental than in platinum-resistant line
Method: as §5, §6, §7, §8, §9, §10

A2780mcp1 = experiment: Comet assay, DNA crosslinking; assay type: cell-based, human; settings: ratio >1 = more cross-linking in parental than in platinum-resistant line
Method: as §5, §6, §7, §8, §9, §10

A2780carb = experiment: Comet assay, DNA crosslinking; assay type: cell-based, human; settings: ratio >1 = more cross-linking in parental than in platinum-resistant line
Method: as §5, §6, §7, §8, §9, §10

[1] = Table 1, first series of assays
[2] = Table 2, further series of assays
[3] = Table 1, first series of assays, mcp8
[4] = Table 2, further series of assays, A2780/mcp8
[5] = Table 1, first series of assays, mcp1
[6] = Table 2, further series of assays, A2780/mcp1

Molecule | IC50 (L1210 cell line; [1]) [µM] | IC50 (L1210 cell line; [2]) [µM] | IC50 (L1210/M1140 cell line; [1]) [µM] | IC50 (L1210/M1140 cell line; [2]) [µM] | DNA crosslinking (Comet) ratio (L1210) | IC50 (A2780-S cell line; [1]) [µM] | IC50 (A2780-S cell line; [2]) [µM] | IC50 (mcp8 cell line; [3]) [µM] | IC50 (mcp8 cell line; [4]) [µM] | IC50 (A2780carb cell line; [1]) [µM] | IC50 (A2780carb cell line; [2]) [µM] | IC50 (cor123 cell line; [1]) [µM] | IC50 (cor123 cell line; [2]) [µM] | IC50 (cor123/cpr cell line; [1]) [µM] | DNA crosslinking (Comet) ratio (ccu24) | DNA crosslinking (Comet) ratio (A2780/mcp8) | DNA crosslinking (Comet) ratio (A2780cis) | DNA crosslinking (Comet) ratio (cor123) | DNA crosslinking (Comet) ratio (A2780mcp1) | DNA crosslinking (Comet) ratio (A2780carb) | other results
c1ccc([PH]([Au][CH2]c2cccc[c]2[Au][PH](c2ccccc2)(c2ccccc2)c2ccccc2)(c2ccccc2)c2ccccc2)cc1 [F] | 0.0281 | 0.0312 | 0.0114 | 0.0144 | 0.53 | 0.0204 | 0.0243 | 0.0053 | 0.0114 | 0.0073 | 0.0104 | 0.0282 | 0.0311 | 0.0114 | 0.60 | 0.56 | 0.52 | 0.62 | 0.54 | 0.61 | IC50 (cor123/cpr cell line; [2]): 0.0146 µM; IC50 (mcp1 cell line; [5]): 0.0063 µM; IC50 (mcp1 cell line; [6]): 0.0104 µM; IC50 (A2780cis cell line; [1]): 0.0054 µM; IC50 (A2780cis cell line; [2]): 0.0083 µM; IC50 (ccu24 cell line; [1]): 0.0221 µM; IC50 (ccu24 cell line; [2]): 0.0264 µM; IC50 (ccu24/cpr cell line; [1]): 0.0095 µM; IC50 (ccu24/cpr cell line; [2]): 0.0122 µM
c1ccc([PH]([Au][CH2]c2cc[c]([Au][PH](c3ccccc3)(c3ccccc3)c3ccccc3)cc2)(c2ccccc2)c2ccccc2)cc1 [D] | 0.0487 | 0.0503 | 0.0174 | 0.0206 | 0.63 | 0.0324 | 0.0366 | 0.0068 | 0.0148 | 0.0103 | 0.0135 | 0.0223 | 0.0254 | 0.0157 | 0.47 | 0.50 | 0.54 | 0.62 | 0.48 | 0.63 | IC50 (cor123/cpr cell line; [2]): 0.0197 µM; IC50 (mcp1 cell line; [5]): 0.0084 µM; IC50 (mcp1 cell line; [6]): 0.0195 µM; IC50 (A2780cis cell line; [1]): 0.0073 µM; IC50 (A2780cis cell line; [2]): 0.0102 µM; IC50 (ccu24 cell line; [1]): 0.0364 µM; IC50 (ccu24 cell line; [2]): 0.0395 µM; IC50 (ccu24/cpr cell line; [1]): 0.0125 µM; IC50 (ccu24/cpr cell line; [2]): 0.0156 µM
[Au(η2-C6H4CH═NC6H5)Cl2] [Au (III), reference compound] |  |  |  |  | 0.54 |  |  |  |  |  |  |  |  |  | 0.78 | 0.69 | 0.67 | 0.83 | 0.72 | 0.71 | 
